Measurements reported in EP1285918A1, “C7 Ester substituted taxanes as antitumor agents” (Florida State University Research Foundation, Inc., priority 2001, dated 2003).

Each molecule was assayed on HCT116 (assay: In Vitro cytotoxicity measured by the cell colony formation assay). Conditions: Homo sapiens, HCT-116; 72 h drug incubation, colonies counted after 7 days; concentration producing 50% inhibition of colony formation; read-out: IN VITRO ID 50 (nm) HCT116.
Format: cell-based
Method: In Vitro cytotoxicity measured by the cell colony formation assay
Four hundred cells (HCT116) were plated in 60 mm Petri dishes containing 2.7 mL of medium (modified McCoy's 5a medium containing 10% fetal bovine serum and 100 units/mL penicillin and […] streptomycin). The cells were incubated in a CO2 incubator at 37 °C for 5 h for attachment to the bottom of Petri dishes. The compounds identified in Example 2 were made up fresh in medium at ten times the final concentration, and then 0.3 mL of this stock solution was added to the 2.7 mL of medium in the dish. The cells were then incubated with drugs for 72 h at 37 ° C. At the end of incubation the drug-containing media were decanted, the dishes were rinsed with 4 mL of Hank's Balance Salt Solution (HBSS), 5 mL of fresh medium was added, and the dishes were returned to the incubator for colony formation. The cell colonies were counted using a colony counter after incubation for 7 days. Cell survival was calculated and the values of ID50 (the drug concentration producing 50% inhibition of colony formation) were determined for each tested compound.

SMILES	IC50
CCCC(=O)OC1CC2OCC2(OC(C)=O)C2C(OC(=O)c3ccccc3)C3(O)CC(OC(=O)C(O)C(NC(=O)OC(C)(C)C)c4ccoc4)C(C)=C(C(O)C(=O)C12C)C3(C)C (stereo not drawn) [Compound 4394]	< 1 nM
CCCC(=O)OC1CC2OCC2(OC(C)=O)C2C(OC(=O)c3ccccc3)C3(O)CC(OC(=O)C(O)C(C=C(C)C)NC(=O)OC(C)(C)C)C(C)=C(C(O)C(=O)C12C)C3(C)C (stereo not drawn) [Compound 4406]	< 1 nM
CCCC(=O)O[C@H]1C[C@H]2OC[C@@]2(OC(C)=O)[C@H]2[C@H](OC(=O)c3ccccc3)[C@]3(O)C[C@H](OC(=O)[C@H](O)[C@@H](NC(=O)c4ccccc4)c4cccs4)C(C)=C([C@@H](O)C(=O)[C@]12C)C3(C)C [Compound 4414]	< 1 nM
CCCC(=O)OC1CC2OCC2(OC(C)=O)C2C(OC(=O)c3ccccc3)C3(O)CC(OC(=O)C(O)C(NC(=O)OC(C)(C)C)c4ccsc4)C(C)=C(C(O)C(=O)C12C)C3(C)C (stereo not drawn) [Compound 4446]	< 1 nM
CCCC(=O)O[C@H]1C[C@H]2OC[C@@]2(OC(C)=O)[C@H]2[C@H](OC(=O)c3ccccc3)[C@]3(O)C[C@H](OC(=O)[C@H](O)[C@@H](NC(=O)c4cccs4)c4cccs4)C(C)=C([C@@H](O)C(=O)[C@]12C)C3(C)C [Compound 4454]	< 1 nM
CCCC(=O)OC1CC2OCC2(OC(C)=O)C2C(OC(=O)c3ccccc3)C3(O)CC(OC(=O)C(O)C(NC(=O)OC(C)(C)C)c4ccco4)C(C)=C(C(O)C(=O)C12C)C3(C)C (stereo not drawn) [Compound 4499]	< 1 nM
CCC(=O)OC1CC2OCC2(OC(C)=O)C2C(OC(=O)c3ccccc3)C3(O)CC(OC(=O)C(O)C(NC(=O)OCC(C)C)c4ccsc4)C(C)=C(C(O)C(=O)C12C)C3(C)C (stereo not drawn) [Compound 4544]	< 10 nM
CCCC(=O)OC1CC2OCC2(OC(C)=O)C2C(OC(=O)c3ccccc3)C3(O)CC(OC(=O)C(O)C(NC(=O)OCC(C)C)c4ccsc4)C(C)=C(C(O)C(=O)C12C)C3(C)C (stereo not drawn) [Compound 4600]	< 10 nM
CCCC(=O)OC1CC2OCC2(OC(C)=O)C2C(OC(=O)c3ccccc3)C3(O)CC(OC(=O)C(O)C(NC(=O)OCC(C)C)c4ccco4)C(C)=C(C(O)C(=O)C12C)C3(C)C (stereo not drawn) [Compound 4616]	< 1 nM
CCC(=O)O[C@H]1C[C@H]2OC[C@@]2(OC(C)=O)[C@H]2[C@H](OC(=O)c3ccccc3)[C@]3(O)C[C@H](OC(=O)[C@H](O)[C@@H](NC(=O)OCC(C)C)c4ccoc4)C(C)=C([C@@H](O)C(=O)[C@]12C)C3(C)C [Compound 4787]	< 10 nM
CCCC(=O)O[C@H]1C[C@H]2OC[C@@]2(OC(C)=O)[C@H]2[C@H](OC(=O)c3ccccc3)[C@]3(O)C[C@H](OC(=O)[C@H](O)[C@@H](NC(=O)OCC(C)C)c4ccoc4)C(C)=C([C@@H](O)C(=O)[C@]12C)C3(C)C [Compound 4828]	< 10 nM
C/C=C/C(=O)N[C@@H](c1ccoc1)[C@@H](O)C(=O)O[C@H]1C[C@@]2(O)[C@@H](OC(=O)c3ccccc3)[C@@H]3[C@]4(OC(C)=O)CO[C@@H]4C[C@H](OC(=O)CC)[C@@]3(C)C(=O)[C@H](O)C(=C1C)C2(C)C [Compound 4898]	< 1 nM
C/C=C/C(=O)N[C@@H](c1ccoc1)[C@@H](O)C(=O)O[C@H]1C[C@@]2(O)[C@@H](OC(=O)c3ccccc3)[C@@H]3[C@]4(OC(C)=O)CO[C@@H]4C[C@H](OC(=O)CCC)[C@@]3(C)C(=O)[C@H](O)C(=C1C)C2(C)C [Compound 4939]	< 1 nM
CCC(=O)O[C@H]1C[C@H]2OC[C@@]2(OC(C)=O)[C@H]2[C@H](OC(=O)c3ccccc3)[C@]3(O)C[C@H](OC(=O)[C@H](O)[C@@H](NC(=O)OC(C)(C)C)C4CC4)C(C)=C([C@@H](O)C(=O)[C@]12C)C3(C)C [Compound 5070]	< 10 nM
CCCC(=O)O[C@H]1C[C@H]2OC[C@@]2(OC(C)=O)[C@H]2[C@H](OC(=O)c3ccccc3)[C@]3(O)C[C@H](OC(=O)[C@H](O)[C@@H](NC(=O)OC(C)(C)C)C4CC4)C(C)=C([C@@H](O)C(=O)[C@]12C)C3(C)C [Compound 5080]	< 1 nM
CCC(=O)O[C@H]1C[C@H]2OC[C@@]2(OC(C)=O)[C@H]2[C@H](OC(=O)c3ccccc3)[C@]3(O)C[C@H](OC(=O)[C@H](O)[C@H](C=C(C)C)NC(=O)OCC(C)C)C(C)=C([C@@H](O)C(=O)[C@]12C)C3(C)C [Compound 5121]	21.1 nM
CCCC(=O)O[C@H]1C[C@H]2OC[C@@]2(OC(C)=O)[C@H]2[C@H](OC(=O)c3ccccc3)[C@]3(O)C[C@H](OC(=O)[C@H](O)[C@H](C=C(C)C)NC(=O)OCC(C)C)C(C)=C([C@@H](O)C(=O)[C@]12C)C3(C)C [Compound 5131]	< 10 nM
CCC(=O)O[C@H]1C[C@H]2OC[C@@]2(OC(C)=O)[C@H]2[C@H](OC(=O)c3ccccc3)[C@]3(O)C[C@H](OC(=O)[C@H](O)[C@@H](NC(=O)OCC(C)C)C4CC4)C(C)=C([C@@H](O)C(=O)[C@]12C)C3(C)C [Compound 5191]	< 10 nM
CCCC(=O)O[C@H]1C[C@H]2OC[C@@]2(OC(C)=O)[C@H]2[C@H](OC(=O)c3ccccc3)[C@]3(O)C[C@H](OC(=O)[C@H](O)[C@@H](NC(=O)OCC(C)C)C4CC4)C(C)=C([C@@H](O)C(=O)[C@]12C)C3(C)C [Compound 5202]	< 10 nM
CC(=O)O[C@@]12CO[C@@H]1C[C@H](OC(=O)C(C)C)[C@@]1(C)C(=O)[C@H](O)C3=C(C)[C@@H](OC(=O)[C@H](O)[C@@H](NC(=O)C(C)C)c4ccco4)C[C@@](O)([C@@H](OC(=O)c4ccccc4)[C@H]21)C3(C)C [Compound 6121]	< 10 nM
C/C=C/C(=O)N[C@@H](c1ccco1)[C@@H](O)C(=O)O[C@H]1C[C@@]2(O)[C@@H](OC(=O)c3ccccc3)[C@@H]3[C@]4(OC(C)=O)CO[C@@H]4C[C@H](OC(=O)C(C)C)[C@@]3(C)C(=O)[C@H](O)C(=C1C)C2(C)C [Compound 6202]	< 1 nM
CCC(=O)O[C@H]1C[C@H]2OC[C@@]2(OC(C)=O)[C@H]2[C@H](OC(=O)c3ccccc3)[C@]3(O)C[C@H](OC(=O)[C@H](O)[C@@H](NC(=O)OC(C)(C)CC)c4ccco4)C(C)=C([C@@H](O)C(=O)[C@]12C)C3(C)C [Compound 6212]	< 1 nM
CCC(C)(C)OC(=O)N[C@@H](c1ccco1)[C@@H](O)C(=O)O[C@H]1C[C@@]2(O)[C@@H](OC(=O)c3ccccc3)[C@@H]3[C@]4(OC(C)=O)CO[C@@H]4C[C@H](OC(=O)C(C)C)[C@@]3(C)C(=O)[C@H](O)C(=C1C)C2(C)C [Compound 6252]	< 1 nM
CCCC(=O)O[C@H]1C[C@H]2OC[C@@]2(OC(C)=O)[C@H]2[C@H](OC(=O)c3ccccc3)[C@]3(O)C[C@H](OC(=O)[C@H](O)[C@@H](NC(=O)OC(C)(C)CC)c4ccco4)C(C)=C([C@@H](O)C(=O)[C@]12C)C3(C)C [Compound 6272]	< 1 nM
CCC(C)(C)OC(=O)N[C@@H](c1ccco1)[C@@H](O)C(=O)O[C@H]1C[C@@]2(O)[C@@H](OC(=O)c3ccccc3)[C@@H]3[C@]4(OC(C)=O)CO[C@@H]4C[C@H](OC(=O)CC(C)C)[C@@]3(C)C(=O)[C@H](O)C(=C1C)C2(C)C [Compound 6282]	< 10 nM
CC(=O)O[C@@]12CO[C@@H]1C[C@H](OC(=O)C(C)C)[C@@]1(C)C(=O)[C@H](O)C3=C(C)[C@@H](OC(=O)[C@H](O)[C@@H](NC(=O)OC(C)(C)C)c4cccs4)C[C@@](O)([C@@H](OC(=O)c4ccccc4)[C@H]21)C3(C)C [Compound 6333]	< 1 nM
CCCCC(=O)O[C@H]1C[C@H]2OC[C@@]2(OC(C)=O)[C@H]2[C@H](OC(=O)c3ccccc3)[C@]3(O)C[C@H](OC(=O)[C@H](O)[C@@H](NC(=O)OC(C)(C)CC)c4ccco4)C(C)=C([C@@H](O)C(=O)[C@]12C)C3(C)C [Compound 6343]	< 10 nM
